Source: patent publication US20120029187A1, “HALOALKYLSULFONANILIDE DERIVATIVE” (Nissan Chemical Industries, Ltd., priority 2009, published 2012)

What was measured:
Format in all cases: in vivo
[1] = system: barnyardgrass; test: Test Example 3: herbicidal effects in soil treatment; details: dose 3.2 g/a
How it was run: (§1)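 Seeds were sown in sterilized diluvial soil and covered with about 1.5 cm of soil. Compounds, formulated as emulsifiable concentrates and diluted with water, were sprayed evenly over the soil surface at set doses in g/a. Herbicidal effect was scored on a rating scale three weeks later.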

[2] = system: posumbu knotweed; test: as above; details: dose 3.2 g/a
How it was run: as §1

[3] = system: water foxtail; test: as above; details: dose 3.2 g/a
How it was run: as §1

[4] = system: large crabgrass; test: as above; details: dose 3.2 g/a
How it was run: as §1

[5] = system: common ragweed; test: as above; details: dose 3.2 g/a
How it was run: as §1

[6] = system: common lambsquater; test: as above; details: dose 3.2 g/a
How it was run: as §1

[7] = system: redroot pigweed; test: as above; details: dose 3.2 g/a
How it was run: as §1

[8] = system: velvetleaf; test: as above; details: dose 3.2 g/a
How it was run: as §1

[9] = system: Italian ryegrass; test: as above; details: dose 3.2 g/a
How it was run: as §1

[10] = system: giant foxtail; test: as above; details: dose 3.2 g/a
How it was run: as §1

[11] = system: common chickweed; test: as above; details: dose 3.2 g/a
How it was run: as §1

[12] = system: barnyardgrass; test: Test Example 1: herbicidal effects in preemergence treatment under submerged conditions; details: dose 2.52 g/a
How it was run: (§2)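 Flooded-paddy preemergence assay; EC diluted with water, surface-applied at weed seeding; doses g/a; rice transplanted at 2.5 leaves; 0–5 mortality score after 3 weeks.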

[13] = system: ducksalad; test: as above; details: dose 2.52 g/a
How it was run: as §2

[14] = system: bulrush; test: as above; details: dose 2.52 g/a
How it was run: as §2

[15] = system: barnyardgrass; test: Test Example 2: herbicidal effects during the vegetation period under submerged conditions; details: treatment during the vegetation period under submerged conditions; dose 2.52 g/a
How it was run: (§3)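 Barnyardgrass, bulrush and ducksalad were co-sown in alluvial soil flooded to 4 cm and grown in a greenhouse at 25 to 30° C. At the 1- or 2-leaf stage, water-diluted emulsifiable concentrates went onto the water surface at set doses (g/a). Herbicidal effect was scored three weeks later on a graded scale.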

[16] = system: ducksalad; test: as above; details: treatment during the vegetation period under submerged conditions; dose 2.52 g/a
How it was run: as §3

[17] = system: bulrush; test: as above; details: treatment during the vegetation period under submerged conditions; dose 2.52 g/a
How it was run: as §3

[18] = system: barnyardgrass; test: Test Example 4: herbicidal effect in foliage treatment; details: dose 3.2 g/a, three weeks after application
How it was run: (§4)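 14-day greenhouse-grown plants (25–30° C) sprayed on foliage with diluted EC; dose as g/a; effect graded after 3 weeks.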

[19] = system: posumbu knotweed; test: as above; details: dose 3.2 g/a, three weeks after application
How it was run: as §4

[20] = system: water foxtail; test: as above; details: dose 3.2 g/a, three weeks after application
How it was run: as §4

[21] = system: large crabgrass; test: as above; details: dose 3.2 g/a, three weeks after application
How it was run: as §4

[22] = system: common ragweed; test: as above; details: dose 3.2 g/a, three weeks after application
How it was run: as §4

[23] = system: common lambsquater; test: as above; details: dose 3.2 g/a, three weeks after application
How it was run: as §4

[24] = system: redroot pigweed; test: as above; details: dose 3.2 g/a, three weeks after application
How it was run: as §4

[25] = system: beadstraw; test: as above; details: dose 3.2 g/a, three weeks after application
How it was run: as §4

[26] = system: velvetleaf; test: as above; details: dose 3.2 g/a, three weeks after application
How it was run: as §4

[27] = system: Italian ryegrass; test: as above; details: dose 3.2 g/a, three weeks after application
How it was run: as §4

[28] = system: giant foxtail; test: as above; details: dose 3.2 g/a, three weeks after application
How it was run: as §4

[29] = system: common chickweed; test: as above; details: dose 3.2 g/a, three weeks after application
How it was run: as §4

[30] = system: transplanted rice; test: Test Example 1: preemergence treatment under submerged conditions, effect on crop; details: dose 2.52 g/a
How it was run: as §2

| Compound | A: barnyardgrass, herbicidal effect (evaluation scale 0-5) [1] | M: posumbu knotweed, herbicidal effect (evaluation scale 0-5) [2] | G: water foxtail, herbicidal effect (evaluation scale 0-5) [3] | D: large crabgrass, herbicidal effect (evaluation scale 0-5) [4] | J: common ragweed, herbicidal effect (evaluation scale 0-5) [5] | L: common lambsquater, herbicidal effect (evaluation scale 0-5) [6] | K: redroot pigweed, herbicidal effect (evaluation scale 0-5) [7] | I: velvetleaf, herbicidal effect (evaluation scale 0-5) [8] | H: Italian ryegrass, herbicidal effect (evaluation scale 0-5) [9] | E: giant foxtail, herbicidal effect (evaluation scale 0-5) [10] | N: common chickweed, herbicidal effect (evaluation scale 0-5) [11] | A: barnyardgrass, herbicidal effect (evaluation scale 0-5) [12] | C: ducksalad, herbicidal effect (evaluation scale 0-5) [13] | B: bulrush, herbicidal effect (evaluation scale 0-5) [14] | A: barnyardgrass, herbicidal effect (evaluation scale 0-5) [15] | C: ducksalad, herbicidal effect (evaluation scale 0-5) [16] | B: bulrush, herbicidal effect (evaluation scale 0-5) [17] | A: barnyardgrass, herbicidal effect [18] | M: posumbu knotweed, herbicidal effect [19] | G: water foxtail, herbicidal effect [20] | further results |
| --- | --- | --- | --- | --- | --- | --- | --- | --- | --- | --- | --- | --- | --- | --- | --- | --- | --- | --- | --- | --- | --- |
| CCC(=O)N(c1ccccc1CN1COC(C)(CC)CC1=O)S(=O)(=O)C(F)(F)F (stereo not drawn) [II-41] | 5 (mortality of 90% or above (nearly complete death)) | 4 (mortality of at least 70% and less than 90%) | 5 (mortality of 90% or above (nearly complete death)) | 4 (mortality of at least 70% and less than 90%) | 4 (mortality of at least 70% and less than 90%) | 3 (mortality of at least 40% and less than 70%) | 2 (mortality of at least 20% and less than 40%) | 5 (mortality of 90% or above (nearly complete death)) | 5 (mortality of 90% or above (nearly complete death)) | 4 (mortality of at least 70% and less than 90%) | 5 (mortality of 90% or above (nearly complete death)) | 5 (mortality of 90% or above (nearly complete death)) | 5 (mortality of 90% or above (nearly complete death)) | 5 (mortality of 90% or above (nearly complete death)) | 5 (mortality of 90% or above (nearly complete death)) | 5 (mortality of 90% or above (nearly complete death)) | 5 (mortality of 90% or above (nearly complete death)) | 5 (mortality of 90% or above (nearly complete death)) | 0 (mortality of less than 5% (almost ineffective)) | 5 (mortality of 90% or above (nearly complete death)) | D: large crabgrass, herbicidal effect [21]: 1 (mortality of at least 5% and less than 20%); J: common ragweed, herbicidal effect [22]: 3 (mortality of at least 40% and less than 70%); L: common lambsquater, herbicidal effect [23]: 2 (mortality of at least 20% and less than 40%); K: redroot pigweed, herbicidal effect [24]: 0 (mortality of less than 5% (almost ineffective)); O: beadstraw, herbicidal effect [25]: 4 (mortality of at least 70% and less than 90%); I: velvetleaf, herbicidal effect [26]: 5 (mortality of 90% or above (nearly complete death)); H: Italian ryegrass, herbicidal effect [27]: 4 (mortality of at least 70% and less than 90%); E: giant foxtail, herbicidal effect [28]: 4 (mortality of at least 70% and less than 90%); N: common chickweed, herbicidal effect [29]: 3 (mortality of at least 40% and less than 70%); a: transplanted rice, effect on crop (evaluation scale 0-5) [30]: 0 (mortality of less than 5% (almost ineffective)) |
| CCOC(=O)N(c1ccccc1CN1COC(C)(CC)CC1=O)S(=O)(=O)C(F)(F)F (stereo not drawn) [II-42] | 5 (mortality of 90% or above (nearly complete death)) | 4 (mortality of at least 70% and less than 90%) | 5 (mortality of 90% or above (nearly complete death)) | 5 (mortality of 90% or above (nearly complete death)) | 4 (mortality of at least 70% and less than 90%) | 0 (mortality of less than 5% (almost ineffective)) | 3 (mortality of at least 40% and less than 70%) | 5 (mortality of 90% or above (nearly complete death)) | 5 (mortality of 90% or above (nearly complete death)) | 1 (mortality of at least 5% and less than 20%) | 5 (mortality of 90% or above (nearly complete death)) | 5 (mortality of 90% or above (nearly complete death)) | 5 (mortality of 90% or above (nearly complete death)) | 5 (mortality of 90% or above (nearly complete death)) | 5 (mortality of 90% or above (nearly complete death)) | 5 (mortality of 90% or above (nearly complete death)) | 5 (mortality of 90% or above (nearly complete death)) | 5 (mortality of 90% or above (nearly complete death)) | 0 (mortality of less than 5% (almost ineffective)) | 5 (mortality of 90% or above (nearly complete death)) | D: large crabgrass, herbicidal effect [21]: 3 (mortality of at least 40% and less than 70%); J: common ragweed, herbicidal effect [22]: 3 (mortality of at least 40% and less than 70%); L: common lambsquater, herbicidal effect [23]: 3 (mortality of at least 40% and less than 70%); K: redroot pigweed, herbicidal effect [24]: 0 (mortality of less than 5% (almost ineffective)); O: beadstraw, herbicidal effect [25]: 3 (mortality of at least 40% and less than 70%); I: velvetleaf, herbicidal effect [26]: 5 (mortality of 90% or above (nearly complete death)); H: Italian ryegrass, herbicidal effect [27]: 3 (mortality of at least 40% and less than 70%); E: giant foxtail, herbicidal effect [28]: 5 (mortality of 90% or above (nearly complete death)); N: common chickweed, herbicidal effect [29]: 4 (mortality of at least 70% and less than 90%); a: transplanted rice, effect on crop (evaluation scale 0-5) [30]: 0 (mortality of less than 5% (almost ineffective)) |
